In publication PMC4915154, “Development of background-free tame fluorescent probes for intracellular live cell imaging” (Nature Communications, 2016):

Columns and labels:
[1] = system: U-2 OS and CHO cell lines; experiment: Cellular retention and efflux characteristics test (before/after washing imaging, retaining ratio RR); assay type: cell-based, human (U-2 OS), Chinese hamster (CHO); conditions: 30 min; for Experimentally observed group: U-2 OS and CHO cell lines, probe 1 μM, imaged before and 10 min after washing; for Cellular retention after washing (probe signal): CHO and U-2 OS cells, 1 uM probe
From the text: To expedite an efficient strategy for ‘tame' probe development, we set up a system to predict cellular properties of fluorescent probes via phenotypic high-throughput screening (HTS), cheminformatics and statistical analysis (Fig. 1a). As the first step, we conducted phenotypic HTS to investigate cell permeability and nonspecific binding properties of the probes in a training set. We tested about 2,085 probes consisted of a wide range photophysical properties from numerous fluorophore cores such as BODIPY[12][13][14][15], xanthone, rosamine, cyanine[19][20] and ACEMAN[21]. Their cellular influx and efflux profiles were examined in two types of mammalian cells, U-2 OS and CHO. These cell lines were chosen due to their flexibility in genetic manipulation, adaptability to various culture conditions and versatility in wide biomedical research such as gene expression, toxicity screening, recombinant protein and live cell imaging. Each of the probes was added into live cells and cell image was taken after 30 min by ImageXpress Micro cellular imaging system (Molecular Device). The cells were then washed with fresh growth media, and after another 10 min, a second image was taken to check the completeness of probe washing out of the cell. The first and second imaging facilitated influx (before washing, BW) and efflux (after washing, AW) measurements, respectively (Supplementary Fig. 1).
To measure the influx and efflux of the probes, an automated quantitative intensity-based image analysis was then performed by Multi-Wavelength Cell Scoring analysis using MetaXpress High Content Image software. Retaining ratio (RR, per cent ratio of the average intensity of AW image over BW image) was computed to classify probes into the three phenotypic groups. For each cell in the image, the nuclei and cell region were segmented to provide approximate cellular boundaries. Fluorescence intensity was then quantified on a cell-by-cell basis by the following steps: (i) selecting the image of interest, (2) specifying the width of the stained cell area, (3) adjusting the intensity above local background for detection specificity, and (4) calculating fluorescence intensity with specified reporting parameters. Average fluorescence intensity for each BW and AW images was calculated for each probes and cell lines, and was then used as input in RR calculation (Supplementary Figs 2 and 3).
U-2 OS, a human osteosarcoma cell line, and CHO, a Chinese hamster ovary cell line, (from ATCC) were cultured in Dulbecco's modified eagle's medium (DMEM) (Invitrogen, CA, USA) supplemented with fetal bovine serum (FBS) (10%) and penicillin–streptomycin (1%). Materials used in the cell culture were purchased from Invitrogen. U-2 OS and CHO cells were seeded onto 96-well plate in growth media at 37 °C in the presence of 5% CO2 and were then allowed to attach and grow to 70–80% confluence. Library probes were dissolved in dimethylsulfoxide (DMSO) to make the 1 mM solution, and stored in −20 °C. Before HTS experiment, the growth media was aspirated and replaced by 200 μl fresh growth media containing probes in final concentration of 1 μM and nuclei dye Hoechst 33342. Plates were incubated for 30 min at 37 °C then were imaged using ImageXpress Micro cellular imaging system (Molecular Device) with × 10 objective lens. Immediately after image acquisition, the cells were washed with fresh growth media, and transferred back to a 37 °C cell incubator for further incubation. After 10 min, cells were again imaged (AW image). The first imaging step allowed influx measurement of BW image , while the second imaging step allowed out-flux measurement of AW image. Images of two regions per well were acquired with DAPI, FITC, TRITC or Texas Red filter sets according to probes' excitation and emission wavelength. Experiment was performed in duplicate. Cellular retention and efflux characteristics test for other synthesized probes were also done by using the same protocol. […]

[2] = system: azide-tagged intracellular organelles in U-2 OS cells; experiment: Live cell SPAAC labelling of azide-tagged organelles (mitochondria, lysosome, golgi apparatus); assay type: cell-based, human; conditions: U-2 OS cells pre-treated with TPP-Az, Sphingo-Az or Morph-Az, 2 μM probe, 1 h, 37 °C
From the text: Next, we investigated intracellular imaging in live cells using CO-1. We synthesized various azide-bearing reporters: TPP-Az, a triphenylphosphonium analogue which accumulates in mitochondria; Sphingo-Az, a ceramide analogue to target golgi apparatus; and Morph-Az, an azide derivative with morpholine moiety as a directing group for lysosome (Fig. 3a). SPAAC covalent labelling reactions between CO-1 and all azide reporters in vitro were clean and rapid. We anticipated that the cell permeable CO-1 is capable of labelling any azide reporters effectively, regardless the reporters' cellular localization. We added 2 μM CO-1 to the growth media of U-2 OS cells pre-treated with TPP-Az, Sphingo-Az or Morph-Az separately. Confocal fluorescence images were then taken after probe washing.
Figure 3 Live cell imaging with CO-1. (a) Chemical structures and schematic illustration of the covalent labelling of azide-tagged organelles using CO-1 in live cells. (b) Fluorescence imaging of mitochondria, lysosome and golgi apparatus in U-2 OS cells labelled with CO-1. Cells pre-treated with TPP-Az, Morph-Az or Sphingo-Az were incubated with 2 μM CO-1 in growth media at 37 °C for 1 h and followed by counterstaining with organelle trackers. Scale bar, 15 μm. (c) Fluorescence imaging of histone H2B in live U-2 OS. U-2 OS cells were co-transfected with plasmids pIre-Azi3 and pmH2B-6-mKate2-16tag to incorporate UAA Azi into H2B-mKate2 at site 16. After Azi incorporation, cells were labelled with 10 μM CO-1 for 90 min at 37 °C. Cells were then washed and imaged. The mKate2 (red) signals were detected in cell nuclei only, and colocalized with the CO-1 (green) signals in the merged image. Scale bar, 5 μm.
U-2 OS cells were treated with 5 μM TPP-Az, in culture media for 2 h at 37 °C. After incubation, cells were washed and added with 2 μM CO-1 probe. Labelling was allowed to proceed for 1 h at 37 °C in the incubator chamber. […]
Fluorescence imaging of mitochondria, lysosome and golgi apparatus in U-2 OS cells labeled with CO-1H. […] In contrast to CO-1, high fluorescence background from CO-1H was observed. […]

[3] = Spectroscopic properties (absorbance, emission, extinction coefficient, quantum yield); assay type: physicochemical; conditions: 10 μM in DMSO
Procedure: Supplementary Table 9. Spectrocopic properties and purity table for CO-1 and CO-1H.
Calculated mass, experimental mass, absorbance maximum (λabs), fluorescent emission maximum (λem), extinction coefficient (ε), quantum yield (Φ), and purity. mass m/z λabs λem ε Purity […]
Absorbance and fluorescence emission data were recorded by a Synergy 4, Biotek Inc. fluorescent plate reader at 10 μM concentration in DMSO in 96-well plates. HRMS a: found mass (M-H), b: tetramethyl BODIPY was used as standard, c: purity data was calculated on the basis of the integration in HPLC trace at 254 nm.

## Cc1cc(/C=C/c2ccc(B(O)O)cc2)n2c1C(c1ccc(N)cc1)=C1C=CC=[N+]1[B-]2(F)F [BOR-1H]
[1]
  Experimentally observed group: H-group (those with RR >5% were classified into H-group)

## Cc1cc(/C=C/c2ccc(B(O)O)cc2)n2c1C(CCC(=O)N1CCOCC1)=C1C=CC(CCC(=O)N(C)C)=[N+]1[B-]2(F)F [BOR-1]
[1]
  Cellular retention after washing (probe signal): significantly decreased after washing
  Experimentally observed group: L-group (Probes (FI(BW) >200) with rapid efflux were observed to have a RR of <5%, and thus were classified into L-group)

## COC(=O)c1ccc(C2=C3C(C)=CC(C)=[N+]3[B-](F)(F)n3c(/C=C/c4ccc(B(O)O)cc4)cc(C)c32)cc1 [BOR-2H]
[1]
  Experimentally observed group: H-group (those with RR >5% were classified into H-group)

## Cc1cc(C)n2c1C(CCC(=O)N1CCOCC1)=C1C=CC(CCC(=O)NCCC(=O)N3Cc4ccccc4C#Cc4ccccc43)=[N+]1[B-]2(F)F [CO-1H]
[1]
  Cellular retention after washing (probe signal): retained inside the cells
  Experimentally observed group: H-group (those with RR >5% were classified into H-group)
[2]
  Fluorescence background after washing: high-fluorescence background
[3]
  ε: 83333 M⁻¹ cm⁻¹
  λabs: 500 nm
  λem: 520 nm
[3]; tetramethyl BODIPY as standard
  QY (Φ): 0.83

## NCCNC1=C2C=CC=[N+]2[B-](F)(F)n2cccc21 [CS-2]
[1]
  Experimentally observed group: L-group (Probes (FI(BW) >200) with rapid efflux were observed to have a RR of <5%, and thus were classified into L-group)

## CCc1c(C)c2n(c1C)[B-](F)(F)[N+]1=CC=CC1=C2SC [CS-3]
[1]
  Experimentally observed group: L-group (Probes (FI(BW) >200) with rapid efflux were observed to have a RR of <5%, and thus were classified into L-group)

## CCc1c(C)c2n(c1C)[B-](F)(F)[N+]1=CC=CC1=C2 [CS-8]
[1]
  Experimentally observed group: L-group (Probes (FI(BW) >200) with rapid efflux were observed to have a RR of <5%, and thus were classified into L-group)

## COC1=C2C=CC(C)=[N+]2[B-](F)(F)n2c(C)ccc21 [CS-11]
[1]
  Experimentally observed group: L-group (Probes (FI(BW) >200) with rapid efflux were observed to have a RR of <5%, and thus were classified into L-group)

## F[B-]1(F)n2cccc2C(N2CCOCCOCCOCC2)=C2C=CC=[N+]21 [CS-13]
[1]
  Experimentally observed group: L-group (Probes (FI(BW) >200) with rapid efflux were observed to have a RR of <5%, and thus were classified into L-group)

## F[B-]1(F)n2cccc2C(N2CCOCCOCCOCCOCC2)=C2C=CC=[N+]21 [CS-14]
[1]
  Experimentally observed group: N-group (Probes in which BW images having FI(BW) ≤200 were classified as N-group)

## CC1=[N+]2C(=C(N3CCNCC3)c3ccc(C)n3[B-]2(F)F)C=C1 [CS-42]
[1]
  Experimentally observed group: L-group (Probes (FI(BW) >200) with rapid efflux were observed to have a RR of <5%, and thus were classified into L-group)

## CCOC(=O)CCNC1=C2C=CC(CC)=[N+]2[B-](F)(F)n2c(CC)ccc21 [CS-56]
[1]
  Experimentally observed group: L-group (Probes (FI(BW) >200) with rapid efflux were observed to have a RR of <5%, and thus were classified into L-group)

## CC(C)(C)NC1=C2C=CC=[N+]2[B-](F)(F)n2cccc21 [CS-101]
[1]
  Experimentally observed group: L-group (Probes (FI(BW) >200) with rapid efflux were observed to have a RR of <5%, and thus were classified into L-group)
